Measurements taken from ChEMBL document CHEMBL1133609, “DoMCoSAR: a novel approach for establishing the docking mode that is consistent with the structure-activity relationship. Application to HIV-1 protease inhibitors and VEGF receptor tyrosine kinase inhibitors” (J Med Chem, 2000).

Molecular target: Human immunodeficiency virus type 1 protease (Human immunodeficiency virus 1, UniProt Q72874)
Test: Inhibitory activity against HIV-1 protease.

IC50	Structure (SMILES)
0.25 nM	CC(C)(C)OC(=O)N[C@@H](Cc1ccccc1)[C@@H](O)C[C@@H](Cc1ccccc1)C(=O)N[C@@H]1c2ccccc2C[C@H]1O
0.27 nM	CC(C)(C)OC(=O)N[C@@H](Cc1ccccc1)[C@@H](O)C[C@@H](Cc1ccc([N+](=O)[O-])cc1)C(=O)N[C@@H]1c2ccccc2C[C@H]1O
0.23 nM	CC(C)(C)OC(=O)N[C@@H](Cc1ccccc1)[C@@H](O)C[C@@H](C/C=C/c1ccccc1)C(=O)N[C@@H]1c2ccccc2C[C@H]1O
122 nM	CC(C)(C)OC(=O)N[C@@H](Cc1ccccc1)[C@@H](O)C[C@@H](Cc1ccccc1)C(=O)N[C@@H]1CCCC[C@H]1O
0.7 nM	CC(C)(C)OC(=O)N[C@@H](Cc1ccccc1)[C@@H](O)C[C@@H](Cc1ccccc1)C(=O)N[C@@H]1c2ccccc2CC[C@H]1O
66.2 nM	COC(=O)[C@@H]1Cc2ccccc2[C@H]1NC(=O)[C@H](Cc1ccccc1)C[C@H](O)[C@H](Cc1ccccc1)NC(=O)OC(C)(C)C
0.6 nM	CC(C)(C)OC(=O)N[C@@H](Cc1ccccc1)[C@@H](O)C[C@@H](Cc1c(F)c(F)c(F)c(F)c1F)C(=O)N[C@@H]1c2ccccc2C[C@H]1O
0.18 nM	CC(C)(C)OC(=O)N[C@@H](Cc1ccccc1)[C@@H](O)C[C@@H](Cc1ccccc1)C(=O)N[C@@H]1c2ccccc2OC[C@H]1O
0.29 nM	Cc1ccc(C[C@H](C[C@H](O)[C@H](Cc2ccccc2)NC(=O)OC(C)(C)C)C(=O)N[C@@H]2c3ccccc3C[C@H]2O)cc1
0.31 nM	CC(C)(C)OC(=O)N[C@@H](Cc1ccccc1)[C@@H](O)C[C@@H](Cc1ccc(N)cc1)C(=O)N[C@@H]1c2ccccc2C[C@H]1O
7.71 nM	CC(C)(C)OC(=O)N[C@@H](Cc1ccccc1)[C@@H](O)C[C@@](C)(Cc1ccccc1)C(=O)N[C@@H]1c2ccccc2C[C@H]1O
0.53 nM	CC(C)(C)OC(=O)N[C@@H](Cc1ccccc1)[C@@H](O)C[C@@H](Cc1ccncc1)C(=O)N[C@@H]1c2ccccc2C[C@H]1O
0.26 nM	CC(C)(C)OC(=O)N[C@@H](Cc1ccccc1)[C@@H](O)C[C@@H](Cc1ccc(C(F)(F)F)cc1)C(=O)N[C@@H]1c2ccccc2C[C@H]1O
2940 nM	CC(C)(C)OC(=O)N[C@@H](Cc1ccccc1)[C@@H](O)CCC(=O)N[C@@H]1c2ccccc2C[C@H]1O
0.719 nM	CC(C)(C)OC(=O)N[C@@H](Cc1ccccc1)[C@@H](O)C[C@@H](Cc1ccc(I)cc1)C(=O)N[C@@H]1c2ccccc2C[C@H]1O
0.16 nM	CC(C)(C)OC(=O)N[C@@H](Cc1ccccc1)[C@@H](O)C[C@@H](Cc1ccc(O)cc1)C(=O)N[C@@H]1c2ccccc2C[C@H]1O
34.3 nM	CC(C)(C)OC(=O)N[C@@H](Cc1ccccc1)[C@@H](O)C[C@@H](Cc1ccccc1)C(=O)N[C@H]1CCc2ccccc21
0.25 nM	CC(C)(C)OC(=O)N[C@@H](Cc1ccccc1)[C@@H](O)C[C@@H](CSc1ccccc1)C(=O)N[C@@H]1c2ccccc2C[C@H]1O
0.19 nM	CC(C)(C)OC(=O)N[C@@H](Cc1ccccc1)[C@@H](O)C[C@@H](CCCc1ccccc1)C(=O)N[C@@H]1c2ccccc2[C@@H](O)[C@H]1O
27.5 nM	C=CC[C@H](C[C@H](O)[C@H](Cc1ccccc1)NC(=O)OC(C)(C)C)C(=O)N[C@@H]1c2ccccc2C[C@H]1O
0.1 nM	CC(C)(C)OC(=O)N[C@@H](Cc1ccccc1)[C@@H](O)C[C@@H](Cc1ccccc1)C(=O)N[C@@H]1c2ccccc2[C@@H](O)[C@H]1O
0.17 nM	CC(C)(C)OC(=O)N[C@@H](Cc1ccccc1)[C@@H](O)C[C@@H](Cc1ccc(C(C)(C)C)cc1)C(=O)N[C@@H]1c2ccccc2C[C@H]1O
9.53 nM	CC(C)(C)OC(=O)N[C@@H](Cc1ccccc1)[C@@H](O)C[C@@H](Cc1ccccc1)C(=O)N[C@@H]1C=CC[C@H]1O
5.42 nM	CC(C)(C)OC(=O)N[C@@H](Cc1ccccc1)[C@@H](O)C[C@@H](CC(=O)c1ccccc1)C(=O)N[C@@H]1c2ccccc2C[C@H]1O
40.6 nM	CC(C)(C)OC(=O)N[C@@H](Cc1ccccc1)[C@@H](O)C[C@@H](Cc1ccccc1)C(=O)N[C@H]1c2ccccc2OC[C@@H]1O

Molecular target: Vascular endothelial growth factor receptor 2 (Mus musculus, UniProt P35918)
Test: Inhibitory activity against vascular endothelial growth factor receptor 2 (FLK1)

Chain of Vascular endothelial growth factor receptor 2 (P35918 whole entry): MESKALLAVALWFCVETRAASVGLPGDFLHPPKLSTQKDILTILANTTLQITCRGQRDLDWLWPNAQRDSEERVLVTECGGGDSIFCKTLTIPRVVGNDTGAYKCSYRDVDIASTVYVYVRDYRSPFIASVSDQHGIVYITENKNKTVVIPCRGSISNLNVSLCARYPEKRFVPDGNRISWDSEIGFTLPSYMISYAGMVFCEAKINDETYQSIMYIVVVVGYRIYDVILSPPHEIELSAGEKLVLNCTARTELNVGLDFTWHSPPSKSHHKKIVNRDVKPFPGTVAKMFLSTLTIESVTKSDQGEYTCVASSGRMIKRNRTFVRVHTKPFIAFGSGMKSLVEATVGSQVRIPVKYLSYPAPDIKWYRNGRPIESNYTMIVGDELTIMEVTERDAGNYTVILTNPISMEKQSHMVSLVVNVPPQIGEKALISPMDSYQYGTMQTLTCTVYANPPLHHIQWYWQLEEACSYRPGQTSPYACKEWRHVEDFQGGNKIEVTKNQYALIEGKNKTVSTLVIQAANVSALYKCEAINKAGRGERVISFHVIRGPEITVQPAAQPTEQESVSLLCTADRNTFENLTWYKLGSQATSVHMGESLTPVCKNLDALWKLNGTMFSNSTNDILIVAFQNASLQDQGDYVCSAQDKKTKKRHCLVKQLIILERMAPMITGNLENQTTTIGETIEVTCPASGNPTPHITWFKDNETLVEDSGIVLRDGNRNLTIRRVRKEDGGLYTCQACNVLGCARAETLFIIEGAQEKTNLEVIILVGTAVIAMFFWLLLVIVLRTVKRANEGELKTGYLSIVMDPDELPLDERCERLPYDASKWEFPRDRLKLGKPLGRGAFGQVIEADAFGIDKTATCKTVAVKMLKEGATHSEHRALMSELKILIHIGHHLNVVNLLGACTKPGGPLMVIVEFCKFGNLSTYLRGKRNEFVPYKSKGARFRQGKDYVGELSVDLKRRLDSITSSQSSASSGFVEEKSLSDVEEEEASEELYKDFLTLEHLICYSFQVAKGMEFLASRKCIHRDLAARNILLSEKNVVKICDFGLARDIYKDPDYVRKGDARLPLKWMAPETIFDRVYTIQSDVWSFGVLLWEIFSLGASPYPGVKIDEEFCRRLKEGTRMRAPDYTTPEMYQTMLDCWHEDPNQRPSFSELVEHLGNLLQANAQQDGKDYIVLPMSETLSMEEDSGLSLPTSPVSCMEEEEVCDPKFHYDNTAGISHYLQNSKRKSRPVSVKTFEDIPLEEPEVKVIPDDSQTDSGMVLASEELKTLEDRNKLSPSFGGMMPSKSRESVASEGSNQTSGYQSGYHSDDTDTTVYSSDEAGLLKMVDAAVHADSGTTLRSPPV

IC50	Structure (SMILES)
20.4 µM	Cn1cccc1/C=C1/C(=O)Nc2ccccc21
4.57 µM	CN(C)c1ccc(/C=C2/C(=O)Nc3cc(F)ccc32)cc1
1000 µM	O=C1Nc2ccccc2/C1=C\c1ccc(Br)cc1
2.51 µM	O=C1Nc2ccccc2/C1=C\c1ccc(N2CCOCC2)cc1
3.39 µM	CCc1ccc(/C=C2/C(=O)Nc3ccccc32)s1
3.02 µM	O=C1Nc2ccccc2/C1=C\c1ccc(N2CCCC2)cc1
7.59 µM	COc1ccc(/C=C2/C(=O)Nc3ccccc32)cc1
2.34 µM	CSc1ccc(/C=C2/C(=O)Nc3ccccc32)s1
1000 µM	CSc1ccc(/C=C2\C(=O)Nc3cccc(C)c32)s1
0.708 µM	Cc1cc(C)c(/C=C2/C(=O)Nc3cc(F)ccc32)[nH]1
0.182 µM	CCOC(=O)c1c[nH]c(/C=C2/C(=O)Nc3ccccc32)c1C
8.51 µM	CC(C)c1cc(/C=C2/C(=O)Nc3ccccc32)cc(C(C)C)c1O
4.47 µM	O=C1Nc2ccccc2/C1=C\c1ccc(N2CCCCC2)cc1
1000 µM	C/C(=C1\C(=O)Nc2ccccc21)c1ccc(N2CCCCC2)cc1
0.398 µM	Cc1c[nH]c(/C=C2/C(=O)Nc3ccccc32)c1CCC(O)O
1000 µM	COc1ccc(/C=C2\C(=O)Nc3ccc(Cl)cc32)cc1C(C)(C)C
5.13 µM	O=CN1CCN(c2ccc(/C=C3\C(=O)Nc4ccccc43)cc2)CC1
1000 µM	CCc1c(C)[nH]c(/C=C2/C(=O)Nc3ccccc32)c1C
22.4 µM	CN(C)c1ccc(/C=C2/C(=O)N(C)c3ccccc32)cc1

IC50	Structure (SMILES)
1000 µM	O=C1Nc2ccccc2/C1=C\c1cc(Br)cs1
1000 µM	O=C1Nc2ccccc2/C1=C\c1ccco1
46.8 µM	CC(C)(C)c1cc(/C=C2/C(=O)Nc3ccccc32)cc(Br)c1O
7.41 µM	O=C1Nc2ccccc2/C1=C\c1n[nH]cc1Cl
50.1 µM	O=C1Nc2ccc(Br)cc2/C1=C/c1ccc(N2CCOCC2)cc1
0.794 µM	CN(C)c1ccc(/C=C2/C(=O)Nc3ccccc32)cc1
100 µM	O=CN1CCN(c2ccc(/C=C3\C(=O)Nc4ccc(Br)cc43)cc2)CC1
1000 µM	Cn1cc(Cl)c(/C=C2/C(=O)Nc3ccccc32)n1
0.141 µM	CCc1c(/C=C2/C(=O)Nc3ccccc32)[nH]c(C)c1C
1000 µM	COc1c(Br)cc(/C=C2\C(=O)Nc3ccc(Cl)cc32)cc1C(C)(C)C
1000 µM	COc1ccc(/C=C2/C(=O)Nc3ccccc32)cc1C(C)(C)C
0.708 µM	O=C1Nc2cc(F)ccc2/C1=C\c1ccc[nH]1
1000 µM	O=C1Nc2ccc([N+](=O)[O-])cc2/C1=C/c1ccc[nH]1
2.69 µM	O=C1Nc2ccccc2/C1=C\c1ccc(O)cc1
1000 µM	CN1C(=O)/C(=C/c2ccc(Br)cc2)c2ccccc21
8.32 µM	CC(C)(C)c1cc(/C=C2/C(=O)Nc3ccccc32)cc(C(C)(C)C)c1O
2.69 µM	Cc1c[nH]c(/C=C2/C(=O)Nc3ccccc32)c1C
0.0708 µM	CCOC(=O)c1c(C)[nH]c(/C=C2/C(=O)Nc3ccccc32)c1C
